Experimental data published in patent US5686421A, “Hydantoin derivates” (Hoechst Aktiengesellschaft, priority 1990, dated 1997).
Like-named read-outs stand apart in the source and are kept apart here.

Test system: human GFP (gel-filtered platelets)
Assay: Inhibition of platelet aggregation, human gel-filtered platelets stimulated with ADP or thrombin
Format: cell-based
Text: The compounds are particularly tested for their inhibitory action on the aggregation of blood platelets and the adhesion of fibrinogen to blood platelets. Gel-filtered blood platelets from donated human blood are used and are activated with ADP or thrombin.
Inhibition of platelet aggregation to human GFP (gel-filtered platelets) stimulated with adenosine diphosphate (ADP) or thrombin (THR) (Marguerie, Plow and Edgington, J. Biol. Chem. 254 (1979) 5357-5363)

[1] = human GFP stimulated with adenosine diphosphate (ADP), read-out: IC50 (μM) ADP
[2] = human GFP stimulated with thrombin (THR), read-out: IC50 (μM) THR

What does the source list for `N=C(N)NCCC[C@H](N)C(=O)NCC(=O)N[C@@H](CC(=O)O)C(N)=O` [HArgGlyAspNH2]?
IC50 [1]: 500 µM; IC50 [2]: 200 µM

Which IC50 [1] does the source give for `N=C(N)NCCC[C@@H](N)C(=O)NCC(=O)N[C@@H](CC(=O)O)C(N)=O` [HDArgGlyAspNH2] here?
Its IC50 is 500 µM.

What about the IC50 [2] of the same molecule?
Its IC50 is 100 µM.

Which IC50 [1] does the source give for `N=C(N)NCCC[C@H]1NC(=O)N(CC(=O)N[C@@H](CC(=O)O)C(N)=O)C1=O` [[5-(R)-(3-guanidino-propyl)-2,4-dioxo-imidazolidin-3-yl]acetyl-L-Asp-amide] here?
The IC50 was 20 µM.

And the IC50 [2]?
Its IC50 is 15 µM.

Which results are given for `COc1ccc(C(NC(=O)[C@H](CC(=O)O)NC(=O)CN2C(=O)N[C@H](CCCN=C(N)N)C2=O)c2ccc(OC)cc2)cc1` [[5-(R)-(3-guanidino-propyl)-2,4-dioxo-imidazolin-3-yl]acetyl Asp 4,4'-dimethoxybenzhydrylamide]?
IC50 [1]: 4 µM; IC50 [2]: 3 µM

Which results are given for `COc1ccc(C(NC(=O)[C@H](CC(=O)O)NC(=O)CN2C(=O)N[C@@H](CCCN=C(N)N)C2=O)c2ccc(OC)cc2)cc1` [[5-(S)-(3-guanidino-propyl)-2,4-dioxo-imidazolidin-3-yl]acetyl-Asp 4,4'-dimethoxybenzhydrylamide]?
IC50 [1]: 10 µM; IC50 [2]: 4 µM

Which results are given for `NC(=O)[C@H](CC(=O)O)NC(=O)CN1C(=O)N[C@@H](CCCN=C(N)N)C1=O` [[5-(S)-(3-guanidinopropyl)-2,4-dioxo-imidazolidin-3-yl]acetyl-Asp-amide]?
IC50 [1]: 40 µM; IC50 [2]: 40 µM

What does the source list for ZDArgGlyAspNH2?
IC50 [1]: 100 µM; IC50 [2]: 80 µM

With ZDArgGlyAspNHMbh as the molecule, how does the IC50 [1] read?
The IC50 was 20 µM.

And the IC50 [2]?
The IC50 was 20 µM.
